Molecular target: T1, dopamine D1 receptor (hD1R) (Homo sapiens, UniProt P21728)
T1 construct: gene DRD1; hD1R stably expressed in FlpIn CHO cells
Experiment: cAMP BRET (CAMYEL) assay with dopamine curves, operational model of allostery (functional KB)
Format: cell-based
Details: read-out: pKB (KB, μM) ^1 (converted)

T1 sequence (P21728 whole entry): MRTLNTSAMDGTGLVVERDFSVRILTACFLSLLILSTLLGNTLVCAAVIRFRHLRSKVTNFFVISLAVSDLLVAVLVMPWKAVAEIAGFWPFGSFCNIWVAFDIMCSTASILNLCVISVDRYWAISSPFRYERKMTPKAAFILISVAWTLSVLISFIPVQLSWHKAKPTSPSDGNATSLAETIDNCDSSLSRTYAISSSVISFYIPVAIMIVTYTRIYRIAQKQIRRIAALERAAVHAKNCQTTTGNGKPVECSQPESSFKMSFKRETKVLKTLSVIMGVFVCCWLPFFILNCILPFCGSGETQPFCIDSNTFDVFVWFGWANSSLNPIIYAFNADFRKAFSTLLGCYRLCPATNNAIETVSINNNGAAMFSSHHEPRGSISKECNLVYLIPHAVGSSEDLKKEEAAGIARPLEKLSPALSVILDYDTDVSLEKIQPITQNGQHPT

| Kb | Compound |
| --- | --- |
| 1.6 µM | Cc1ccc(Cl)c(NC(=O)C2(C)CC3c4ccccc4C2c2ccccc23)c1Cl (racemic) [rac-2, rel-(9R,10R,12S)-N-(2,6-Dichloro-3-methylphenyl)-12-methyl-9,10-dihydro-9,10-ethanoanthracene-12-carboxamide] |
| 7.6 µM | Cc1ccc(Cl)c(NC(=O)[C@]2(C)C[C@H]3c4ccccc4[C@@H]2c2ccccc23)c1Cl [(R)-2, (9R,10S,12S)-N-(2,6-Dichloro-3-methylphenyl)-12-methyl-9,10-dihydro-9,10-ethanoanthracene-12-carboxamide] |
| 1 µM | Cc1ccc(Cl)c(NC(=O)[C@@]2(C)C[C@H]3c4ccccc4[C@@H]2c2ccccc23)c1Cl [(S)-2, (9S,10R,12R)-N-(2,6-Dichloro-3-methylphenyl)-12-methyl-9,10-dihydro-9,10-ethanoanthracene-12-carboxamide] |

— PMC8270344, “Enantioenriched Positive Allosteric Modulators Display Distinct Pharmacology at the Dopamine D1 Receptor” (Molecules, 2021)
